# Data taken from US10441608B2, “Continuous methods for treating liquids and manufacturing certain constituents (e.g., nanoparticles) in liquids, apparatuses and nanoparticles and nanoparticle/liquid solution(s) resulting therefrom” (Clene Nanomedicine, Inc., priority 2009, dated 2019).
# Several values for one entry are separate records, joined by “and”; a condition that tells them apart may be missing. Equal values may be shown once. Read-outs that look alike come from different tables or passages of the source.
# System: Gram-Positive and Gram Negative bacteria
# Format: cell-based
structure (smiles),measurement,setting,value
C[C@H]1COc2c(N3CCN(C)CC3)c(F)cc3c(=O)c(C(=O)O)cn1c23 [Levofloxacin],MIC/MID 50,Citrobacter freundii - antibiotic-susceptible clinical isolate,0.02 µg/mL
same,MIC/MID 50,Citrobacter freundii - resistant clinical isolate,8.00 µg/mL
same,MIC/MID 50,Enterobacter sp - antibiotic-susceptible clinical isolate,0.12 µg/mL
same,MIC/MID 50,Enterobacter sp - multi-drug resistant clinical isolate,0.06 µg/mL
same,MIC/MID 50,Enterococcus faecalis - ATCC 29212 antibiotic-susceptible control strain,2.00 µg/mL
same,MIC/MID 50,Enterococcus faecalis vancomycin-susceptible clinical isolate,4.00 µg/mL
same,MIC/MID 50,Enterococcus faecium vancomycin-resistant (VanB) clinical isolate,4.00 µg/mL
same,MIC/MID 50,Enterococcus gallinarum vancomycin-resistant (VanC) clinical isolate,2.00 µg/mL
same,MIC/MID 50,Escherichia coli ATCC25922 - antibiotic-susceptible type strain,0.02 µg/mL
same,MID/MIC (amount of antibiotic),"GN01 Escherichia coli ATCC25922, antibiotic-susceptible type strain",0.015 µg/mL
same,MID/MIC (amount of antibiotic),"GN02 Escherichia coli ATCC35218, β-lactamase positive type strain",0.015 µg/mL
same,MID/MIC (amount of antibiotic),"GN06 Enterobacter sp, antibiotic-susceptible clinical isolate",0.06 µg/mL and 0.12 µg/mL
same,MID/MIC (amount of antibiotic),"GN10 Pseudomonas aeruginosa ATCC27853, antibiotic-susceptible type strain",2 µg/mL
same,MID/MIC (amount of antibiotic),"GN11 Pseudomonas aeruginosa, multi-drug resistant clinical isolate",2 µg/mL
same,MID/MIC (amount of antibiotic),"GN12 Stenotrophomonas maltophilia, antibiotic-susceptible clinical isolate",0.25 µg/mL
same,MID/MIC (amount of antibiotic),"GN13 Stenotrophomonas maltophila, antibiotic-resistant clinical isolate",1 µg/mL
same,MID/MIC (amount of antibiotic),"GN14 Burkholderia cepacia, antibiotic-susceptible clinical isolate",4 µg/mL
same,MID/MIC (amount of antibiotic),"GN15 Proteus mirabilis, antibiotic-susceptible clinical isolate",0.06 µg/mL
same,MID/MIC (amount of antibiotic),"GN16 Proteus mirabilis, multi-drug resistant clinical isolate",2 µg/mL
same,MID/MIC (amount of antibiotic),"GN17 Salmonella sp, antibiotic-susceptible clinical isolate",0.03 µg/mL
same,MID/MIC (amount of antibiotic),"GN18 Salmonella sp, multi-drug resistant clinical isolate",0.06 µg/mL
same,MID/MIC (amount of antibiotic),"GN19 Shigella sp, antibiotic-susceptible clinical isolate",0.03 µg/mL
same,MID/MIC (amount of antibiotic),"GN20 Shigella sp, multi-drug resistant clinical isolate",0.03 µg/mL
same,MID/MIC (amount of antibiotic),"GN22 Morganella morganii, multi-drug resistant clinical isolate",1 µg/mL
same,MID/MIC (amount of antibiotic),"GN23 Providencia stuartii, antibiotic-susceptible clinical isolate",0.06 µg/mL
same,MID/MIC (amount of antibiotic),"GN24 Providencia stuartii, multi-drug resistant clinical isolate",8 µg/mL
same,MID/MIC (amount of antibiotic),"GN28 Haemophilus influenzae, β-lactamase negative ampicillin-resistant clinical isolate",0.06 µg/mL
same,MID/MIC (amount of antibiotic),"GN29 Moraxella catarrhalis, β-lactamase positive clinical isolate",0.06 µg/mL
same,MID/MIC (amount of antibiotic),"GN32 Acinetobacter baumanii, multi-drug resistant clinical isolate",8 µg/mL
same,MID/MIC (amount of antibiotic),"GN33 Bacteroides fragilis, antibiotic-susceptible clinical isolate, supplemented with 2% serum and 1 μg/mL Vit K",0.015 µg/mL
same,MID/MIC (amount of antibiotic),"GP02 Staphylococcus aureus ATCC 25923, antibiotic-susceptible control strain",0.12 µg/mL
same,MID/MIC (amount of antibiotic),"GP04 Staphylococcus aureus, methicillin-resistant clinical isolate",0.12 µg/mL
same,MID/MIC (amount of antibiotic),"GP05 Staphylococcus aureus, multi-drug-resistant clinical isolate",4 µg/mL
same,MID/MIC (amount of antibiotic),"GP06 Staphylococcus aureus, teicoplanin-intermediate clinical isolate",4 µg/mL
same,MID/MIC (amount of antibiotic),"GP07 Staphylococcus epidermidis, antibiotic susceptible clinical isolate",0.12 µg/mL
same,MID/MIC (amount of antibiotic),"GP08 Staphylococcus epidermidis, methicillin-resistant clinical isolate",0.25 µg/mL
same,MID/MIC (amount of antibiotic),"GP09 Staphylococcus haemolyticus, antibiotic susceptible clinical isolate",0.5 µg/mL
same,MID/MIC (amount of antibiotic),"GP10 Staphylococcus saprophyticus, antibiotic susceptible clinical isolate",0.5 µg/mL
same,MID/MIC (amount of antibiotic),"GP11 Enterococcus faecalis ATCC 29212, antibiotic-susceptible control strain",2 µg/mL
same,MID/MIC (amount of antibiotic),"GP12 Enterococcus faecalis, vancomycin-susceptible clinical isolate",4 µg/mL
same,MID/MIC (amount of antibiotic),"GP15 Enterococcus faecalis, high-level gentamicin-resistant clinical isolate",>8 µg/mL
same,MID/MIC (amount of antibiotic),"GP16 Enterococcus faecium, vancomycin-susceptible clinical isolate",>8 µg/mL
same,MID/MIC (amount of antibiotic),"GP17 Enterococcus faecium, vancomycin-resistant (VanA) clinical isolate",4 µg/mL
same,MID/MIC (amount of antibiotic),"GP18 Enterococcus faecium, vancomycin-resistant (VanB) clinical isolate",2 µg/mL
same,MID/MIC (amount of antibiotic),"GP19 Enterococcus gallinarum, vancomycin-resistant (VanC) clinical isolate",1 µg/mL
same,MID/MIC (amount of antibiotic),"GP20 Streptococcus pneumoniae ATCC 49619, antibiotic-susceptible control strain",1 µg/mL
same,MID/MIC (amount of antibiotic),"GP21 Streptococcus pneumoniae, pencillin-susceptible clinical isolate",0.5 µg/mL
same,MID/MIC (amount of antibiotic),"GP22 Streptococcus pneumoniae, penicillin-intermediate clinical isolate",0.5 µg/mL
same,MID/MIC (amount of antibiotic),"GP23 Streptococcus pneumoniae, penicillin-resistant clinical isolate",0.5 µg/mL and 1 µg/mL
same,MID/MIC (amount of antibiotic),"GP25 Streptococcus pyogenes, antibiotic-susceptible clinical isolate",0.5 µg/mL
same,MID/MIC (amount of antibiotic),"GP29 Corynebacterium jeikeium, multi-drug resistant clinical isolate",0.5 µg/mL
same,MID/MIC (amount of antibiotic),"GP30 Listeria monocytogenes, antibiotic-susceptible clinical isolate",8 µg/mL
same,MID/MIC (amount of antibiotic),"GP31 MU50 Staphylococcus aureus (MRSA), VISA type strain",0.06 µg/mL
